Patent EP1510220B1 (priority 1993, dated 1994)

System: Rat vascular smooth muscle cells
Assay: Proliferation of rat vascular smooth muscle cells by cell counting
Format: cell-based
Protocol: Cell culture, DNA synthesis assay and cell counting. Rat vascular smooth muscle cells were cultured after enzymatic dispersion of the aortic media from 12-17 week old Wistar rats as described in Grainger et al., Biochem. J., 277: 145-151, 1991. When the cells reached confluence (after about 6 days) the cells were released with trypsin/EDTA (available from Gibco) and diluted 1:2 in Dulbecco's modification of Eagle's medium (DMEM; available from ICN/Flow) supplemented with 100 U/ml penicillin and 10% fetal calf serum (FCS). The cells were then replated on tissue culture plastic (available from ICN/Flow) at approximately 1 x 10^4 cells/cm^2. The cells were subcultured repeatedly in this way when confluence was attained (about every 4 days), and the cells were used between passages 6 and 12.
Cells were prepared for counting by hemocytometer from triplicate culture dishes as described in Grainger et al., Biochem. J., 277:145-151, 1991. Cells were also counted by direct microscopic observation of gridded culture dishes. The grids were scored into the plastic on the inner surface, so that the cells could not migrate into or out of the area being counted during the experiment. Cells in each of four squares in two separate wells were counted at each time point. All cell counting experiments were repeated on at least three separate cultures.
A stock solution of tamoxifen (5 mM; available from ICI Pharmaceuticals) was made up in 10% ethanol (EtOH) and diluted in DMEM and 10% FCS to give the final concentration. The effects of each tamoxifen concentration were compared with the effects observed in control wells containing the same final concentration of the ethanol vehicle. Recombinant TGF-beta (available from Amersham International) was dissolved in 25 mM Tris/Cl to give a 5 microgram/ml stock solution and sterile filtered through a Spinnex Tube (such as a Centrex Disposable Microfilter Unit available from Rainin Instrument Company, Inc., Woburn, MA). Neutralizing antiserum to TGF-beta (BDA19; available from R & D Systems) was reconstituted in sterile MilliQ water (available from Millipore Corporation, Bedford, MA). At 10 micrograms/ml, this antibody completely abolished the activity of 10 ng/ml recombinant TGF-beta on subcultured (8th passage) vascular smooth muscle cells.

For CC/C(=C(\c1ccccc1)c1ccc(OCCN(C)C)cc1)c1ccccc1 [tamoxifen, trans-2-[4-(1,2-diphenyl-1-butenyl)phenoxy]-N,N-dimethylethylamine], the “cells that had divided by 64 hours” value (33 micromolar) was “more than 90%”, the “time taken for 50% of the cells to divide after stimulation by serum” value (33 micromolar, n=3, vehicle 35 +/-3 hours) was 54 ± 2 h and the “onset of increase in cell number after serum stimulation” value (33 micromolar, time lapse photomicroscopy) was “no significant increase in cell number in the presence of tamoxifen until after 48 hours”. For the same compound, the rate of proliferation (50 micromolar with 10 micrograms/ml neutralizing antiserum against TGF-beta, 10% FCS) was “proliferated at the same rate as control cells”, the “reduction of the increase in cell number” value (50 micromolar, 96 hours following the addition of serum, n=3, 5760 min, 50 µM) was 66% +/-5.2 and the inhibition at 50 µM (Rattus norvegicus, 50 micromolar, 96 hours following the addition of serum, n=3, read-out: reduction of the increase in cell number) was 66%. It also gave an IC (maximal) (Rattus norvegicus, DMEM + 10% FCS, read-out: concentrations giving maximal inhibition of the rate of proliferation) of over 33 µM and an IC50 (rat ED VSMC, read-out: half-maximal inhibition of proliferation) of 2 to 5 µM.
